Measured values from PMC9481151, “Discovery of new symmetrical and asymmetrical nitrile-containing 1,4-dihydropyridine derivatives as dual kinases and P-glycoprotein inhibitors: synthesis, in vitro assays, and in silico studies” (Journal of Enzyme Inhibition and Medicinal Chemistry, 2022).
“And” between values parts separate entries of the source, which are not always exact repeats. Equal entries are not always repeated.

How the values were obtained:
MOLT-4 = experiment: NCI single dose (10 µM) SRB screen; assay type: cell-based, human; conditions: leukaemia, 48 h
RPMI-8226 = experiment: NCI single dose (10 µM) SRB screen; assay type: cell-based, human; conditions: leukaemia, 48 h
SR = experiment: NCI single dose (10 µM) SRB screen; assay type: cell-based, human; conditions: leukaemia, 48 h
A549/ATCC = experiment: NCI single dose (10 µM) SRB screen; assay type: cell-based, human; conditions: non-small cell lung cancer, 48 h
HOP-62 = experiment: NCI single dose (10 µM) SRB screen; assay type: cell-based, human; conditions: non-small cell lung cancer, 48 h
HOP-92 = experiment: NCI single dose (10 µM) SRB screen; assay type: cell-based, human; conditions: non-small cell lung cancer, 48 h
NCI-H226 = experiment: NCI single dose (10 µM) SRB screen; assay type: cell-based, human; conditions: non-small cell lung cancer, 48 h
NCI-H23 = experiment: NCI single dose (10 µM) SRB screen; assay type: cell-based, human; conditions: non-small cell lung cancer, 48 h
NCI-H322M = experiment: NCI single dose (10 µM) SRB screen; assay type: cell-based; conditions: non-small cell lung cancer, 48 h
NCI-H522 = experiment: NCI single dose (10 µM) SRB screen; assay type: cell-based, human; conditions: non-small cell lung cancer, 48 h
COLO 205 = experiment: NCI single dose (10 µM) SRB screen; assay type: cell-based, human; conditions: colon cancer, 48 h
HCC-2998 = experiment: NCI single dose (10 µM) SRB screen; assay type: cell-based, human; conditions: colon cancer, 48 h
HCT-15 = experiment: NCI single dose (10 µM) SRB screen; assay type: cell-based, human; conditions: colon cancer, 48 h
SW-620 = experiment: NCI single dose (10 µM) SRB screen; assay type: cell-based, human; conditions: colon cancer, 48 h
SF-268 = experiment: NCI single dose (10 µM) SRB screen; assay type: cell-based, human; conditions: CNS cancer, 48 h
SF-295 = experiment: NCI single dose (10 µM) SRB screen; assay type: cell-based, human; conditions: CNS cancer, 48 h
SF-539 = experiment: NCI single dose (10 µM) SRB screen; assay type: cell-based, human; conditions: CNS cancer, 48 h
SNB-19 = experiment: NCI single dose (10 µM) SRB screen; assay type: cell-based, human; conditions: CNS cancer, 48 h
SNB-75 = experiment: NCI single dose (10 µM) SRB screen; assay type: cell-based, human; conditions: CNS cancer, 48 h
U251 = experiment: NCI single dose (10 µM) SRB screen; assay type: cell-based, human; conditions: CNS cancer, 48 h
LOX IMVI = experiment: NCI single dose (10 µM) SRB screen; assay type: cell-based, human; conditions: melanoma, 48 h
MALME-3M = experiment: NCI single dose (10 µM) SRB screen; assay type: cell-based, human; conditions: melanoma, 48 h
M14 = experiment: NCI single dose (10 µM) SRB screen; assay type: cell-based, human; conditions: melanoma, 48 h
MDA-MB-435 = experiment: NCI single dose (10 µM) SRB screen; assay type: cell-based, human; conditions: melanoma, 48 h
SK-MEL-28 = experiment: NCI single dose (10 µM) SRB screen; assay type: cell-based, human; conditions: melanoma, 48 h
UACC-257 = experiment: NCI single dose (10 µM) SRB screen; assay type: cell-based, human; conditions: melanoma, 48 h
UACC-62 = experiment: NCI single dose (10 µM) SRB screen; assay type: cell-based, human; conditions: melanoma, 48 h
IGROV1 = experiment: NCI single dose (10 µM) SRB screen; assay type: cell-based, human; conditions: ovarian cancer, 48 h
OVCAR-3 = experiment: NCI single dose (10 µM) SRB screen; assay type: cell-based, human; conditions: ovarian cancer, 48 h
OVCAR-4 = experiment: NCI single dose (10 µM) SRB screen; assay type: cell-based, human; conditions: ovarian cancer, 48 h
OVCAR-8 = experiment: NCI single dose (10 µM) SRB screen; assay type: cell-based, human; conditions: ovarian cancer, 48 h
NCI/ADR-RES = experiment: NCI single dose (10 µM) SRB screen; assay type: cell-based, human; conditions: ovarian cancer, 48 h
786-0 = experiment: NCI single dose (10 µM) SRB screen; assay type: cell-based, human; conditions: renal cancer, 48 h
CAKI-1 = experiment: NCI single dose (10 µM) SRB screen; assay type: cell-based, human; conditions: renal cancer, 48 h
RXF 393 = experiment: NCI single dose (10 µM) SRB screen; assay type: cell-based, human; conditions: renal cancer, 48 h
SN12C = experiment: NCI single dose (10 µM) SRB screen; assay type: cell-based, human; conditions: renal cancer, 48 h
TK-10 = experiment: NCI single dose (10 µM) SRB screen; assay type: cell-based, human; conditions: renal cancer, 48 h
UO-31 = experiment: NCI single dose (10 µM) SRB screen; assay type: cell-based, human; conditions: renal cancer, 48 h
PC-3 = experiment: NCI single dose (10 µM) SRB screen; assay type: cell-based, human; conditions: prostate cancer, 48 h
DU-145 = experiment: NCI single dose (10 µM) SRB screen; assay type: cell-based, human; conditions: prostate cancer, 48 h
MDA-MB-231 = experiment: NCI single dose (10 µM) SRB screen; assay type: cell-based, human; conditions: breast cancer, 48 h
HS578T = experiment: NCI single dose (10 µM) SRB screen; assay type: cell-based, human; conditions: breast cancer, 48 h
BT-549 = experiment: NCI single dose (10 µM) SRB screen; assay type: cell-based, human; conditions: breast cancer, 48 h
T-47D = experiment: NCI single dose (10 µM) SRB screen; assay type: cell-based, human; conditions: breast cancer, 48 h
MDA-MB-468 = experiment: NCI single dose (10 µM) SRB screen; assay type: cell-based, human; conditions: breast cancer, 48 h
NCI 60 cancer cell lines = experiment: NCI single dose (10 µM) SRB screen, mean over panel; assay type: cell-based, human; conditions: mean over 60 cell lines, 48 h
Staphylococcus aureus = experiment: Agar well diffusion method
Bacillus subtilis = experiment: Agar well diffusion method
Escherichia coli = experiment: Agar well diffusion method
Candida albicans = experiment: Agar well diffusion method
Aspergillus flavus = experiment: Agar well diffusion method

CCOC(=O)C1=C(C)NC(C)=C(C(=O)OC)C1c1cccc(C#N)c1 (racemic) [Compound 2g, (±)-3-Ethyl 5-methyl 4-(3-cyanophenyl)-2,6-dimethyl-1,4-dihydropyridine-3,5-dicarboxylate]
GI% MOLT-4 (MOLT-4): – (Only GI% ≥ 10 are shown)
GI% RPMI-8226 (RPMI-8226): – (Only GI% ≥ 10 are shown)
GI% SR (SR): 14%
GI% A549/ATCC (A549/ATCC): – (Only GI% ≥ 10 are shown)
GI% HOP-62 (HOP-62): – (Only GI% ≥ 10 are shown)
GI% HOP-92 (HOP-92): – (Only GI% ≥ 10 are shown)
GI% NCI-H226 (NCI-H226): – (Only GI% ≥ 10 are shown)
GI% NCI-H23 (NCI-H23): – (Only GI% ≥ 10 are shown)
GI% NCI-H322M (NCI-H322M): – (Only GI% ≥ 10 are shown)
GI% NCI-H522 (NCI-H522): – (Only GI% ≥ 10 are shown)
GI% COLO 205 (COLO 205): – (Only GI% ≥ 10 are shown)
GI% HCC-2998 (HCC-2998): – (Only GI% ≥ 10 are shown)
GI% HCT-15 (HCT-15): – (Only GI% ≥ 10 are shown)
GI% SW-620 (SW-620): – (Only GI% ≥ 10 are shown)
GI% SF-268 (SF-268): – (Only GI% ≥ 10 are shown)
GI% SF-295 (SF-295): – (Only GI% ≥ 10 are shown)
GI% SF-539 (SF-539): – (Only GI% ≥ 10 are shown)
GI% SNB-19 (SNB-19): – (Only GI% ≥ 10 are shown)
GI% SNB-75 (SNB-75): – (Only GI% ≥ 10 are shown)
GI% U251 (U251): – (Only GI% ≥ 10 are shown)
GI% LOX IMVI (LOX IMVI): – (Only GI% ≥ 10 are shown)
GI% MALME-3M (MALME-3M): – (Only GI% ≥ 10 are shown)
GI% M14 (M14): – (Only GI% ≥ 10 are shown)
GI% MDA-MB-435 (MDA-MB-435): – (Only GI% ≥ 10 are shown)
GI% SK-MEL-28 (SK-MEL-28): – (Only GI% ≥ 10 are shown)
GI% UACC-257 (UACC-257): – (Only GI% ≥ 10 are shown)
GI% UACC-62 (UACC-62): – (Only GI% ≥ 10 are shown)
GI% IGROV1 (IGROV1): – (Only GI% ≥ 10 are shown)
GI% OVCAR-3 (OVCAR-3): – (Only GI% ≥ 10 are shown)
GI% OVCAR-4 (OVCAR-4): – (Only GI% ≥ 10 are shown)
GI% OVCAR-8 (OVCAR-8): – (Only GI% ≥ 10 are shown)
GI% NCI/ADR-RES (NCI/ADR-RES): – (Only GI% ≥ 10 are shown)
GI% 786-0 (786-0): – (Only GI% ≥ 10 are shown)
GI% CAKI-1 (CAKI-1): – (Only GI% ≥ 10 are shown)
GI% RXF 393 (RXF 393): – (Only GI% ≥ 10 are shown)
GI% SN12C (SN12C): – (Only GI% ≥ 10 are shown)
GI% TK-10 (TK-10): – (Only GI% ≥ 10 are shown)
GI% UO-31 (UO-31): – (Only GI% ≥ 10 are shown)
GI% PC-3 (PC-3): – (Only GI% ≥ 10 are shown)
GI% DU-145 (DU-145): – (Only GI% ≥ 10 are shown)
GI% MDA-MB-231 (MDA-MB-231): – (Only GI% ≥ 10 are shown)
GI% HS578T (HS578T): 10%
GI% BT-549 (BT-549): – (Only GI% ≥ 10 are shown)
GI% T-47D (T-47D): – (Only GI% ≥ 10 are shown)
GI% MDA-MB-468 (MDA-MB-468): – (Only GI% ≥ 10 are shown)
Mean GI% (NCI 60 cancer cell lines): −1%
zone of inhibition at 1000 µg/mL (Staphylococcus aureus; Staphylococcus aureus, 24 h, read-out: Diameter of inhibition zone, S. aureus): 22 mm
% activity index, S. aureus (Staphylococcus aureus; relative to ciprofloxacin): 91% and 91.7%
zone of inhibition at 1000 µg/mL (Bacillus subtilis; Bacillus subtilis, 24 h, read-out: Diameter of inhibition zone, B. subtilis): 19 mm
% activity index, B. subtilis (Bacillus subtilis; relative to ciprofloxacin): 82% and 82.6%
zone of inhibition at 1000 µg/mL (Escherichia coli; Escherichia coli, 24 h, read-out: Diameter of inhibition zone, E. coli): 19 mm
% activity index, E. coli (Escherichia coli; relative to ciprofloxacin): 73% and 73.1%
zone of inhibition at 1000 µg/mL (Candida albicans; Candida albicans, 24 h, read-out: Diameter of inhibition zone, C. albicans): 23 mm
% activity index, C. albicans (Candida albicans; relative to clotrimazole): 85% and 85.2%
zone of inhibition at 1000 µg/mL (Aspergillus flavus; Aspergillus flavus, 24 h, read-out: Diameter of inhibition zone, A. flavus): 24 mm
% activity index, A. flavus (Aspergillus flavus; relative to clotrimazole): 96%
